From US4994440A, “Method for the treatment of renal cell carcinoma” (priority 1989, dated 1991)

Test system: metastatic renal cell carcinoma
Experiment: Treatment of patients with metastatic renal cell carcinoma by 1 hour infusion of the liposomal composition
Type: in vivo, man
Details: a patient with renal cell carcinoma with multiple small pulmonary metastases
Protocol: 12 patients diagnosed as having metastatic renal cell carcinoma were given the liposomal composition in accordance with Example 2 at various dosage levels of the active ingredient by 1 hour infusion in 50 ml of isotonic saline through a safety filter twice a week for a total of 8 doses.

How did the size of lesions turn out when `CCCCCCCCCCCCCCCC(=O)OCC(COP(=O)([O-])OCCNC(=O)C(C)NC(=O)CCC(NC(=O)C(C)NC(=O)C(C)OC1C(O)C(CO)OC(O)C1NC(C)=O)C(N)=O)OC(=O)CCCCCCCCCCCCCCC.[Na+]` [N-acetylmuramyl-L-alanyl-D-isoglutaminyl-L-alanine-2-(1,2-dipalmitoyl-sn-glycero-3-hydroxyphosphoryloxy)ethylamide monosodium salt] was run?
The size of lesions was “reduce the size of lesions”.
